{"source": "patent US12201618B2", "about": "(Biohaven Therapeutics Ltd., priority 2018, dated 2025)", "key": {"[1]": {"settings": "taken with meals; cited from earlier work"}, "[2]": {"test_system": "patients diagnosed with Alzheimer's disease of mild-to-moderate severity", "assay": "T2 Protect AD Phase 2/3 trial: neuropsychiatric inventory (NPI)", "type": "in vivo, human", "settings": "after 48 weeks", "description": "The NPI is a well-validated, reliable, multi-item instrument to assess psychopathology in AD dementia based on the results of an interview with the study partner (Cummings, 1997). The NPI evaluates both the frequency and severity of 10 neuropsychiatric features, including delusions, hallucinations, agitation/aggression, dysphoria, anxiety, euphoria, apathy, disinhibition, irritability and lability, and aberrant motor behavior, as well as evaluates sleep and appetite/eating disorders. Frequency assessments range from 1 (occasionally, less than once per week) to 4 (very frequently, once or more per day or continuously). Severity assessments range from 1 (mild) to 3 (severe). The score for each subscale is the product of severity and frequency and the total score is the sum of all subscales.\n(§1) The T2 Protect AD trial has been conducted, which is a Phase 2/3, randomized, double-blind, placebo-controlled study evaluating the efficacy and safety of troriluzole in patients diagnosed with Alzheimer's disease of mild-to-moderate severity (Mini-Mental State Examination [MMSE] scores of 14-24; mild: 20-24, moderate: 14-19)."}, "[3]": {"test_system": "patients diagnosed with Alzheimer's disease of mild-to-moderate severity", "assay": "T2 Protect AD Phase 2/3 trial: CDR-Sum of Boxes", "type": "in vivo, human", "settings": "for CDR01-Sum of Boxes Week 48 Model Estimates LSMean (SE): Week 48, change from baseline; for CDR01-Sum of Boxes Week 48 Model Estimates LSMean (SE) Difference: Week 48, placebo vs troriluzole", "description": "The CDR-SOB (Hughes, Berg, Danziger, Coben, & Martin, 1982) is a validated composite rating of cognition and everyday functioning used in longitudinal AD research which incorporates both informant input and direct assessment of performance. It assesses through semi structured interview 3 cognitive domains including memory, orientation, and judgement/problem solving and 3 everyday functional domains including community affairs, home and hobbies and personal care. There are 5 levels of impairment from none CDR=0 to severe CDR=3. The individual domain scores are added to create a sum of the box scores.\nas §1"}, "[4]": {"test_system": "patients diagnosed with Alzheimer's disease of mild-to-moderate severity", "assay": "T2 Protect AD Phase 2/3 trial: ADAS-Cog 11", "type": "in vivo, human", "settings": "for ADAS-Cog Total Score Week 48 Model Estimates LSMean (SE): Week 48, change from baseline; for ADAS-Cog Total Score Week 48 Model Estimates LSMean (SE) Difference: Week 48, placebo vs troriluzole", "description": "(§2) The ADAS-Cog 11 evaluates memory (word recall, word recognition), reasoning (following commands), language (naming, comprehension), orientation, ideational praxis (placing a letter in an envelope) and constructional praxis (copying geometric designs). Ratings of spoken language, language comprehension, word finding difficulty, and ability to remember test instructions are also obtained. The test is scored in terms of errors, with higher scores reflecting poorer performance and greater impairment. Scores can range from 0 (best) to 70 (worse).\nThe primary efficacy endpoint is the within-participant change in ADAS-Cog 11 from baseline to week 48, compared between the treatment group and the placebo group.\nas §2, with “11 (Rosen, Mohs, & Davis, 1984) is a structured scale that” for “11”\nas §1"}, "[5]": {"test_system": "patients diagnosed with Alzheimer's disease of mild-to-moderate severity", "assay": "T2 Protect AD Phase 2/3 trial: volumetric hippocampal MRI", "type": "in vivo, human", "settings": "for Hippocampal Volume Change Week 48 Model Estimates LSMean (SE) Difference: Week 48, placebo vs troriluzole", "description": "vMRI allows the in vivo assessment of brain structure volume and provides a measure of atrophy rate. […] Atrophy of the medial temporal lobe, including hippocampus and entorhinal cortex, has long been described in vMRI studies of AD. Hippocampal volume derived from MRI correlates with histological hippocampal volume and degree of neuronal loss and AD pathology, and entorhinal cortical thickness change appears to be an early and sensitive indicator of neurodegeneration associated with AD (Holland et al., 2009; Jack et al., 2004).\nParticipants will undergo vMRI scans of the brain at screening, week 24 and week 48 in order to assess for changes in brain volumes that may be associated with clinical change due to treatment with BHV-4157.\nVolumetric MRI scans will use the same imaging protocol, which will include a localizer scan, a 3D T1weighted sagittal acquisition (MPRAGE or IR-SPGR), a T2-weighted FLAIR axial acquisition, a T2* gradient recalled echo axial acquisition for magnetic susceptibility, and a diffusion weighted axial acquisition to assess for restricted diffusion.\nImages will be checked for image quality and adherence to scanning protocols. 3D T1-weighted datasets passing quality checks will be corrected for spatial distortion and for intensity variation. Screening and follow-up datasets for each participant will be spatially registered to one another using rigid-body registration followed by nonlinear registration and neuroanatomic parcellation to quantify whole-brain and subregional volumetric change on a patient-by patient basis.\nWhole brain volume (WBV, excluding cerebellum), bilateral ventricular volume and bilateral hippocampal volume will be measured. Quantitative anatomical regional change (Quarc) will be used as the computational MR image processing application. Detail for the statistical computations is given in the Statistical Analytical Plan (SAP).\nas §1"}, "[6]": {"settings": "mild-to-moderate AD, all patients"}, "[7]": {"settings": "mild-to-moderate AD, all patients, Week 48"}}}
{"compound": "Nc1nc2ccc(OC(F)(F)F)cc2s1", "note": "[Riluzole, 6-(trifluoromethoxy)benzothiazol-2-amine]", "values": [{"measurement": "food effect on exposure", "setting": "[1]", "result": "reduced exposure when taken with meals"}]}
{"compound": "CN(CC(=O)Nc1nc2ccc(OC(F)(F)F)cc2s1)C(=O)CNC(=O)CN", "note": "[Troriluzole]", "values": [{"measurement": "NPI score LS mean change difference versus placebo", "setting": "[2]; mild AD, 95% CI: −5.99, 1.78, p-value=0.286", "result": "−2.1"}, {"measurement": "LS mean change from baseline on the NPI score", "setting": "[2]; mild AD, n=62", "result": 2.1, "unit": "points"}, {"measurement": "NPI score LS mean change difference versus placebo", "setting": "[2]; mild-to-moderate AD, 95% CI: −4.08, 1.10, p-value=0.258", "result": "−1.5"}, {"measurement": "LS mean change from baseline on the NPI score", "setting": "[2]; mild-to-moderate AD, n=120", "result": 2.3, "unit": "points"}, {"measurement": "CDR01-Sum of Boxes Week 48 Analysis Value Mean (SD)", "setting": "[3]; Mild AD Patients Only", "result": "7.1 (2.79)"}, {"measurement": "CDR01-Sum of Boxes Week 48 Analysis Value Median", "setting": "[3]; Mild AD Patients Only", "result": 6.5}, {"measurement": "CDR01-Sum of Boxes Week 48 Change from Baseline Mean (SD)", "setting": "[3]; Mild AD Patients Only", "result": "1.4 (2.06)"}, {"measurement": "CDR01-Sum of Boxes Week 48 Change from Baseline Median", "setting": "[3]; Mild AD Patients Only", "result": 1.0}, {"measurement": "CDR01-Sum of Boxes Week 48 Model Estimates LSMean (SE)", "setting": "[3]; Mild AD Patients Only", "result": "1.7 (0.29)"}, {"measurement": "CDR01-Sum of Boxes Week 48 Model Estimates LSMean (SE) Difference", "setting": "[3]; Mild AD Patients Only", "result": "−0.3 (0.40)"}, {"measurement": "CDR01-Sum of Boxes Week 48 Analysis Value Mean (SD)", "setting": "[3]; [6]", "result": "8.3 (3.24)"}, {"measurement": "CDR01-Sum of Boxes Week 48 Analysis Value Median", "setting": "[3]; [6]", "result": 8.0}, {"measurement": "CDR01-Sum of Boxes Week 48 Change from Baseline Mean (SD)", "setting": "[3]; [6]", "result": "1.9 (2.37)"}, {"measurement": "CDR01-Sum of Boxes Week 48 Change from Baseline Median", "setting": "[3]; [6]", "result": 2.0}, {"measurement": "CDR01-Sum of Boxes Week 48 Model Estimates LSMean (SE)", "setting": "[3]; [6]", "result": "2.1 (0.21)"}, {"measurement": "CDR01-Sum of Boxes Week 48 Model Estimates LSMean (SE) Difference", "setting": "[3]; [6]", "result": "−0.2 (0.28)"}, {"measurement": "ADAS-Cog Total Score Week 48 Analysis Value Mean (SD)", "setting": "[4]; Mild AD Patients Only, Week 48", "result": "26.2 (8.22)"}, {"measurement": "ADAS-Cog Total Score Week 48 Analysis Value Median", "setting": "[4]; Mild AD Patients Only, Week 48", "result": 26.0}, {"measurement": "ADAS-Cog Total Score Week 48 Change from Baseline Mean (SD)", "setting": "[4]; Mild AD Patients Only, Week 48", "result": "3.9 (5.90)"}, {"measurement": "ADAS-Cog Total Score Week 48 Change from Baseline Median", "setting": "[4]; Mild AD Patients Only, Week 48", "result": 4.0}, {"measurement": "ADAS-Cog Total Score Week 48 Model Estimates LSMean (SE)", "setting": "[4]; Mild AD Patients Only", "result": "4.2 (0.76)"}, {"measurement": "ADAS-Cog Total Score Week 48 Model Estimates LSMean (SE) Difference", "setting": "[4]; Mild AD Patients Only", "result": "0.7 (1.02)"}, {"measurement": "ADAS-Cog11 score LS mean change difference versus placebo", "setting": "[4]; mild AD, after 48 weeks, 95% CI: −1.4, 2.7, p-value=0.5233", "result": 0.7}, {"measurement": "LS mean change from baseline on the ADAS-Cog11 score", "setting": "[4]; mild AD, after 48 weeks, n=65", "result": 4.2, "unit": "points"}, {"measurement": "ADAS-Cog Total Score Week 48 Analysis Value Median", "setting": "[4]; [7]", "result": 30.0}, {"measurement": "ADAS-Cog Total Score Week 48 Change from Baseline Mean (SD)", "setting": "[4]; [7]", "result": "5.8 (7.40)"}, {"measurement": "ADAS-Cog Total Score Week 48 Change from Baseline Median", "setting": "[4]; [7]", "result": 6.0}, {"measurement": "ADAS-Cog Total Score Week 48 Analysis Value Mean (SD)", "setting": "[4]; mild-to-moderate AD, all patients, Week 48, 280 mg once daily", "result": "31.5 (10.82)"}, {"measurement": "ADAS-Cog Total Score Week 48 Model Estimates LSMean (SE)", "setting": "[4]; [6]", "result": "6.7 (0.70)"}, {"measurement": "ADAS-Cog Total Score Week 48 Model Estimates LSMean (SE) Difference", "setting": "[4]; [6]", "result": "0.0 (0.93)"}, {"measurement": "Hippocampal Volume Change Week 48 Analysis Value Mean (SD)", "setting": "[5]; Mild AD Patients Only", "result": "−1.1 (1.61)"}, {"measurement": "Hippocampal Volume Change Week 48 Analysis Value Median", "setting": "[5]; Mild AD Patients Only", "result": "−0.9"}, {"measurement": "Hippocampal Volume Change Week 48 Model Estimates LSMean (SE)", "setting": "[5]; Mild AD Patients Only", "result": "−1.1 (0.27)"}, {"measurement": "Hippocampal Volume Change Week 48 Model Estimates LSMean (SE) Difference", "setting": "[5]; Mild AD Patients Only", "result": "−0.5 (0.38)"}, {"measurement": "hippocampal volume LS mean percent deformation change difference versus placebo", "setting": "[5]; mild AD, after 48 weeks, 95% CI: −1.2, 0.3, p-value=0.2240", "result": "−0.5", "unit": "%"}, {"measurement": "LS mean percent deformation change from baseline hippocampal volume", "setting": "[5]; mild AD, after 48 weeks, n=48", "result": "−1.1", "unit": "%"}, {"measurement": "Hippocampal Volume Change Week 48 Analysis Value Mean (SD)", "setting": "[5]; [6]", "result": "−1.1 (1.50)"}, {"measurement": "Hippocampal Volume Change Week 48 Analysis Value Median", "setting": "[5]; [6]", "result": "−0.9"}, {"measurement": "Hippocampal Volume Change Week 48 Model Estimates LSMean (SE)", "setting": "[5]; [6]", "result": "−1.1 (0.18)"}, {"measurement": "Hippocampal Volume Change Week 48 Model Estimates LSMean (SE) Difference", "setting": "[5]; [6]", "result": "0.0 (0.26)"}]}
